Results from ChEMBL document CHEMBL2157907, “Optimization of anti-Trypanosoma cruzi oxadiazoles leads to identification of compounds with efficacy in infected mice” (Bioorg Med Chem, 2012).
pIC50: −log10 of the molar value. Active and inactive are the calls of the source. The calls are words filed in the database; no cut-off is given here.

Legend:
[1] = tested on: Trypanosoma cruzi; test: Induction of kinetoplast enlargement in trypomastigotes of Trypanosoma cruzi Y at 9.5 uM after 24 hrs by […] electron microscopic analysis; type: functional, organism-based
[2] = molecular target: Cruzipain (Trypanosoma cruzi) (UniProt P25779); test: Inhibition of Trypanosoma cruzi cruzain using Z-Phe-Arg-aminomethylcoumarin as substrate at 100 uM after 10 mins
[3] = tested on: Trypanosoma cruzi; test: Antitrypanosomal activity against trypomastigotes of Trypanosoma cruzi Y infected in rhesus monkey LLC-MK2 cells assessed parasite viability after 24 hrs; type: functional, organism-based; settings: LLC-MK2, 24 h
[4] = tested on: Trypanosoma cruzi; test: Antitrypanosomal activity against epimastigotes of Trypanosoma cruzi Y after 5 days; type: functional, organism-based; settings: 120 h
[5] = tested on: Trypanosoma cruzi; test: Antitrypanosomal activity against trypomastigotes of Trypanosoma cruzi Y infected in BALB/c mouse assessed as reduction of parasite level in blood at 50 mg/kg, po administered after 5 days of postinfection qd for 5 days; type: functional, organism-based; parameters: dose 50 mg/kg
[6] = tested on: Trypanosoma cruzi; test: Antitrypanosomal activity against trypomastigotes of Trypanosoma cruzi Y in BALB/c mouse peritoneal exudate macrophages assessed as reduction of parasite infection to cells at 10 ug/ml treated simultaneously with parasite measured after 2 hrs; type: functional, organism-based
[7] = tested on: Trypanosoma cruzi; test: Induction of endoplasmic reticulum degeneration in trypomastigotes of Trypanosoma cruzi Y at 9.5 uM after 24 hrs by […] electron microscopic analysis; type: functional, organism-based
[8] = tested on: Trypanosoma cruzi; test: Induction of golgi apparatus degeneration in trypomastigotes of Trypanosoma cruzi Y at 9.5 uM after 24 hrs by […] electron microscopic analysis; type: functional, organism-based
[9] = Cytotoxicity against BALB/c mouse splenocytes after 24 hrs by [3H]-thymidine incorporation assay; type: cell-based, Splenocyte; settings: read-out: LC50
[10] = tested on: Trypanosoma cruzi; test: Antitrypanosomal activity against trypomastigotes of Trypanosoma cruzi Y infected in BALB/c mouse peritoneal exudate macrophages assessed as reduction of parasite level at 10 ug/ml after 4 days; type: functional, organism-based
[11] = tested on: Trypanosoma cruzi; test: Induction of ultrastructural changes in trypomastigotes of Trypanosoma cruzi Y assessed as plasma membrane protrusions at 30 uM after 24 hrs by scanning electron microscopic analysis; type: functional
[12] = tested on: Trypanosoma cruzi; test: Induction of mitochondria degeneration in trypomastigotes of Trypanosoma cruzi Y at 9.5 uM after 24 hrs by […] electron microscopic analysis; type: functional, organism-based
[13] = molecular target: Cruzipain (Trypanosoma cruzi, UniProt P25779); test: Inhibition of Trypanosoma cruzi cruzain using Z-Phe-Arg-aminomethylcoumarin as substrate after 10 mins
Cruzipain, sequence (P25779 whole entry): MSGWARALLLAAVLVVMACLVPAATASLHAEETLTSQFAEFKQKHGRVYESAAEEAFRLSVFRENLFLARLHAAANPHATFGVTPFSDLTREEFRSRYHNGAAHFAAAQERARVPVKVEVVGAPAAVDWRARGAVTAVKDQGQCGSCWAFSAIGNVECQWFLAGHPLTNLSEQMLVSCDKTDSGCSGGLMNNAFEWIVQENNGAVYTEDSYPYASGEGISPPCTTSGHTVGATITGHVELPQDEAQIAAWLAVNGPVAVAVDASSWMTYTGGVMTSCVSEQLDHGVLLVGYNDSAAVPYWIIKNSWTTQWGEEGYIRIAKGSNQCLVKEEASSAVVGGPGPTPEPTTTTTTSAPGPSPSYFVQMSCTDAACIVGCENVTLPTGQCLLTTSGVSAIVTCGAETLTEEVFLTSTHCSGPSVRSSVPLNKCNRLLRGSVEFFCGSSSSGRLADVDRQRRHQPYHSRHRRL

Cruzipain (Trypanosoma cruzi), sequence (P25779 123-467 limits assumed): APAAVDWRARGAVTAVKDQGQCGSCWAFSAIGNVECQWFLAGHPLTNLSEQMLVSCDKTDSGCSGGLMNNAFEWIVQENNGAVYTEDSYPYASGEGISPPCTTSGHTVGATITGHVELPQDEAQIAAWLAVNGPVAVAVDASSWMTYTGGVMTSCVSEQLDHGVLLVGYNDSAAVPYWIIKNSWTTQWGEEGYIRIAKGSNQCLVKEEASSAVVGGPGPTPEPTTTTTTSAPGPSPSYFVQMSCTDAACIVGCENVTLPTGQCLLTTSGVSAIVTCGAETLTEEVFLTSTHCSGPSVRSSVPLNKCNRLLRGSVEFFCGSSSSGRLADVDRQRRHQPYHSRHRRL

| Structure (SMILES) | inhibition [2] [%] | CC50 at 24 h [9] [µg/mL] | other results |
| --- | --- | --- | --- |
| O=C(N/N=C/c1ccc2c(c1)OCO2)c1nc(-c2ccc(F)cc2)no1 | 34 | > 100 | Activity [1]: Active; pIC50 [3]: 5.02; pIC50 [4]: 4.91; Activity [5]: inactive; Activity [6]: Active; Activity [7]: Active; Activity [8]: Active; Activity [10]: Active; Activity [11]: 80%; Activity [12]: Active |
| O=C(N/N=C/c1ccc2c(c1)OCO2)c1nc(-c2ccc([N+](=O)[O-])cc2)no1 |  | > 100 |  |
| COc1cc(/C=N/NC(=O)c2nc(-c3ccc(O)cc3)no2)ccc1O | 25 | > 100 |  |
| O=C(N/N=C/c1ccc2c(c1)OCO2)c1nc(-c2ccc(O)cc2)no1 | 17 | > 100 |  |
| COc1cc(/C=N/NC(=O)c2nc(-c3ccccc3)no2)ccc1O | 47 | > 100 |  |
| COc1cc(/C=N/NC(=O)c2nc(-c3ccc([N+](=O)[O-])cc3)no2)ccc1O | 47 | > 100 |  |
| COc1ccc(-c2noc(C(=O)N/N=C/c3ccc(O)c(OC)c3)n2)cc1 | 35 | > 100 |  |
| O=C(N/N=C/c1ccc2c(c1)OCO2)c1nc(-c2ccc(Br)cc2)no1 | 95 | > 100 | pIC50 [3]: 4.87; pIC50 [4]: 4.85; pIC50 [13]: 7.52; Activity [10]: inactive |
| Cc1ccc(-c2noc(C(=O)N/N=C/c3ccc4c(c3)OCO4)n2)cc1 | 49 | > 100 |  |
